Measured values taken from PubChem BioAssay (NCI).
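1) Cells in 96-well plates. 2) Compound, 48 h, 5 concentrations. 3) Linear interpolation between surrounding doses. 4) Unreached endpoint = highest concentration. TGI: total growth inhibition.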

Key:
Assay in all cases: inhibition of tumour cell growth, NCI panel, 48 h
A549 NSCLC = test system: A549 NSCLC
OVCAR-5 ovarian = test system: OVCAR-5 ovarian
UACC-62 melanoma = test system: UACC-62 melanoma
SNB-75 CNS = test system: SNB-75 CNS
ACHN renal = test system: ACHN renal
CCRF-CEM leukemia = test system: CCRF-CEM leukemia
NCI-H226 lung = test system: NCI-H226 lung
SN12C renal = test system: SN12C renal
OVCAR-3 ovarian = test system: OVCAR-3 ovarian
DU-145 prostate = test system: DU-145 prostate
BT-549 breast = test system: BT-549 breast
SK-MEL-2 melanoma = test system: SK-MEL-2 melanoma
MALME-3M melanoma = test system: MALME-3M melanoma
U251 CNS = test system: U251 CNS
HCT-116 colon = test system: HCT-116 colon
SK-MEL-28 melanoma = test system: SK-MEL-28 melanoma
OVCAR-8 ovarian = test system: OVCAR-8 ovarian
CAKI-1 renal = test system: CAKI-1 renal
HS 578T breast = test system: HS 578T breast
TK-10 renal = test system: TK-10 renal
COLO 205 colon = test system: COLO 205 colon
SF-268 CNS = test system: SF-268 CNS
MDA-N = test system: MDA-N
A498 renal = test system: A498 renal
SF-539 CNS = test system: SF-539 CNS
M14 melanoma = test system: M14 melanoma
RPMI-8226 leukemia = test system: RPMI-8226 leukemia
PC-3 prostate = test system: PC-3 prostate
EKVX NSCLC = test system: EKVX NSCLC
MCF7 breast = test system: MCF7 breast
SF-295 CNS = test system: SF-295 CNS
NCI-H23 lung = test system: NCI-H23 lung
SK-OV-3 ovarian = test system: SK-OV-3 ovarian
MDA-MB-435 = test system: MDA-MB-435
SNB-19 CNS = test system: SNB-19 CNS
OVCAR-4 ovarian = test system: OVCAR-4 ovarian
RXF 393 renal = test system: RXF 393 renal
SK-MEL-5 melanoma = test system: SK-MEL-5 melanoma
MOLT-4 leukemia = test system: MOLT-4 leukemia
UACC-257 melanoma = test system: UACC-257 melanoma
NCI/ADR-RES ovarian = test system: NCI/ADR-RES ovarian
HOP-62 NSCLC = test system: HOP-62 NSCLC
HCC-2998 colon = test system: HCC-2998 colon
SW-620 colon = test system: SW-620 colon
MDA-MB-231 breast = test system: MDA-MB-231 breast
KM12 colon = test system: KM12 colon
HCT-15 colon = test system: HCT-15 colon
T-47D breast = test system: T-47D breast
UO-31 renal = test system: UO-31 renal
HT29 colon = test system: HT29 colon
HL-60(TB) leukemia = test system: HL-60(TB) leukemia
786-0 renal = test system: 786-0 renal
K-562 leukemia = test system: K-562 leukemia
HOP-92 NSCLC = test system: HOP-92 NSCLC
NCI-H522 lung = test system: NCI-H522 lung
LOX IMVI melanoma = test system: LOX IMVI melanoma
SR leukemia = test system: SR leukemia
IGROV1 ovarian = test system: IGROV1 ovarian
NCI-H460 lung = test system: NCI-H460 lung

Q: With `Cc1cn(C2CC(O)C(Cn3cc(Cn4nc(Br)c(=O)[nH]c4=O)nn3)O2)c(=O)[nH]c1=O` (stereo not given) as the compound, how does the TGI (A549 NSCLC) read?
A: The TGI was over 100 µM.

Q: What about the TGI (OVCAR-5 ovarian) of the same compound?
A: The TGI was over 100 µM.

Q: And the TGI (UACC-62 melanoma)?
A: The TGI was over 100 µM.

Q: What about the TGI (SNB-75 CNS) of the same compound?
A: The TGI was over 100 µM.

Q: What about the TGI (ACHN renal) of the same compound?
A: The TGI was over 100 µM.

Q: What about the TGI (CCRF-CEM leukemia) of the same compound?
A: Its TGI is 14.3 µM.

Q: What about the TGI (NCI-H226 lung) of the same compound?
A: The TGI was over 100 µM.

Q: And the TGI (SN12C renal)?
A: Its TGI is over 100 µM.

Q: And the TGI (OVCAR-3 ovarian)?
A: Its TGI is over 100 µM.

Q: What about the TGI (DU-145 prostate) of the same compound?
A: Its TGI is over 100 µM.

Q: And the TGI (BT-549 breast)?
A: The TGI was over 100 µM.

Q: What about the TGI (SK-MEL-2 melanoma) of the same compound?
A: The TGI was over 100 µM.

Q: And the TGI (MALME-3M melanoma)?
A: Its TGI is over 100 µM.

Q: And the TGI (U251 CNS)?
A: The TGI was over 100 µM.

Q: What about the TGI (HCT-116 colon) of the same compound?
A: The TGI was over 100 µM.

Q: What about the TGI (SK-MEL-28 melanoma) of the same compound?
A: Its TGI is over 100 µM.

Q: What about the TGI (OVCAR-8 ovarian) of the same compound?
A: The TGI was over 100 µM.

Q: What about the TGI (CAKI-1 renal) of the same compound?
A: The TGI was over 100 µM.

Q: What about the TGI (HS 578T breast) of the same compound?
A: The TGI was over 100 µM.

Q: What about the TGI (TK-10 renal) of the same compound?
A: The TGI was over 100 µM.

Q: What about the TGI (COLO 205 colon) of the same compound?
A: Its TGI is over 100 µM.

Q: And the TGI (SF-268 CNS)?
A: Its TGI is over 100 µM.

Q: And the TGI (MDA-N)?
A: The TGI was over 100 µM.

Q: What about the TGI (A498 renal) of the same compound?
A: The TGI was over 100 µM.

Q: What about the TGI (SF-539 CNS) of the same compound?
A: The TGI was over 100 µM.

Q: What about the TGI (M14 melanoma) of the same compound?
A: The TGI was over 100 µM.

Q: And the TGI (RPMI-8226 leukemia)?
A: The TGI was over 100 µM.

Q: And the TGI (PC-3 prostate)?
A: Its TGI is over 100 µM.

Q: What about the TGI (EKVX NSCLC) of the same compound?
A: Its TGI is over 100 µM.

Q: What about the TGI (MCF7 breast) of the same compound?
A: Its TGI is over 100 µM.

Q: And the TGI (SF-295 CNS)?
A: The TGI was over 100 µM.

Q: What about the TGI (NCI-H23 lung) of the same compound?
A: The TGI was over 100 µM.

Q: What about the TGI (SK-OV-3 ovarian) of the same compound?
A: Its TGI is over 100 µM.

Q: And the TGI (MDA-MB-435)?
A: The TGI was over 100 µM.

Q: And the TGI (SNB-19 CNS)?
A: The TGI was over 100 µM.

Q: What about the TGI (OVCAR-4 ovarian) of the same compound?
A: Its TGI is over 100 µM.

Q: What about the TGI (RXF 393 renal) of the same compound?
A: The TGI was over 100 µM.

Q: What about the TGI (SK-MEL-5 melanoma) of the same compound?
A: Its TGI is over 100 µM.

Q: And the TGI (MOLT-4 leukemia)?
A: Its TGI is over 100 µM.

Q: What about the TGI (UACC-257 melanoma) of the same compound?
A: The TGI was over 100 µM.

Q: What about the TGI (NCI/ADR-RES ovarian) of the same compound?
A: Its TGI is over 100 µM.

Q: And the TGI (HOP-62 NSCLC)?
A: The TGI was over 100 µM.

Q: And the TGI (HCC-2998 colon)?
A: Its TGI is over 100 µM.

Q: What about the TGI (SW-620 colon) of the same compound?
A: The TGI was over 100 µM.

Q: And the TGI (MDA-MB-231 breast)?
A: Its TGI is over 100 µM.

Q: What about the TGI (KM12 colon) of the same compound?
A: Its TGI is over 100 µM.

Q: What about the TGI (HCT-15 colon) of the same compound?
A: Its TGI is over 100 µM.

Q: What about the TGI (T-47D breast) of the same compound?
A: The TGI was over 100 µM.

Q: What about the TGI (UO-31 renal) of the same compound?
A: Its TGI is over 100 µM.

Q: How did the TGI (A549 NSCLC) turn out when `NCCCN1CCN(CCCNc2ccc3ncn4c5ccccc5c(=O)c2c34)CC1` was run?
A: Its TGI is over 25 µM.

Q: And the TGI (OVCAR-5 ovarian)?
A: Its TGI is 19.3 µM.

Q: And the TGI (UACC-62 melanoma)?
A: Its TGI is 6.18 µM.

Q: What about the TGI (HT29 colon) of the same compound?
A: Its TGI is 6.7 µM.

Q: What about the TGI (SNB-75 CNS) of the same compound?
A: The TGI was 8.71 µM.

Q: And the TGI (ACHN renal)?
A: The TGI was 13.9 µM.

Q: What about the TGI (HL-60(TB) leukemia) of the same compound?
A: The TGI was 10.1 µM.

Q: And the TGI (CCRF-CEM leukemia)?
A: The TGI was over 25 µM.

Q: What about the TGI (SN12C renal) of the same compound?
A: Its TGI is 3.68 µM.

Q: And the TGI (786-0 renal)?
A: Its TGI is 24 µM.

Q: What about the TGI (OVCAR-3 ovarian) of the same compound?
A: The TGI was over 25 µM.

Q: What about the TGI (DU-145 prostate) of the same compound?
A: Its TGI is 8.2 µM.

Q: And the TGI (SK-MEL-2 melanoma)?
A: Its TGI is 13.3 µM.

Q: What about the TGI (MALME-3M melanoma) of the same compound?
A: The TGI was 6.27 µM.

Q: What about the TGI (U251 CNS) of the same compound?
A: The TGI was over 25 µM.

Q: And the TGI (HCT-116 colon)?
A: The TGI was 18.3 µM.

Q: What about the TGI (SK-MEL-28 melanoma) of the same compound?
A: Its TGI is 19.6 µM.

Q: And the TGI (OVCAR-8 ovarian)?
A: The TGI was 19.5 µM.

Q: And the TGI (CAKI-1 renal)?
A: The TGI was 9.02 µM.

Q: What about the TGI (K-562 leukemia) of the same compound?
A: The TGI was over 25 µM.

Q: And the TGI (HS 578T breast)?
A: Its TGI is 22.1 µM.

Q: And the TGI (TK-10 renal)?
A: Its TGI is over 25 µM.

Q: What about the TGI (COLO 205 colon) of the same compound?
A: The TGI was 2.66 µM.

Q: And the TGI (SF-268 CNS)?
A: The TGI was 6.04 µM.

Q: What about the TGI (HOP-92 NSCLC) of the same compound?
A: The TGI was over 25 µM.

Q: What about the TGI (MDA-N) of the same compound?
A: Its TGI is 4.88 µM.

Q: What about the TGI (A498 renal) of the same compound?
A: Its TGI is 5.63 µM.

Q: And the TGI (SF-539 CNS)?
A: Its TGI is 7.19 µM.

Q: What about the TGI (M14 melanoma) of the same compound?
A: Its TGI is 8.05 µM.

Q: What about the TGI (RPMI-8226 leukemia) of the same compound?
A: The TGI was over 25 µM.

Q: And the TGI (NCI-H522 lung)?
A: The TGI was 1.52 µM.

Q: What about the TGI (PC-3 prostate) of the same compound?
A: Its TGI is 10.8 µM.

Q: And the TGI (EKVX NSCLC)?
A: The TGI was 9.03 µM.

Q: What about the TGI (MCF7 breast) of the same compound?
A: Its TGI is over 25 µM.

Q: And the TGI (SF-295 CNS)?
A: Its TGI is 15.7 µM.

Q: What about the TGI (NCI-H23 lung) of the same compound?
A: The TGI was 6.98 µM.

Q: What about the TGI (LOX IMVI melanoma) of the same compound?
A: Its TGI is 4.07 µM.

Q: What about the TGI (SK-OV-3 ovarian) of the same compound?
A: The TGI was over 25 µM.

Q: What about the TGI (MDA-MB-435) of the same compound?
A: Its TGI is over 25 µM.

Q: What about the TGI (SNB-19 CNS) of the same compound?
A: Its TGI is 4.46 µM.

Q: What about the TGI (OVCAR-4 ovarian) of the same compound?
A: Its TGI is 2.89 µM.

Q: And the TGI (SR leukemia)?
A: Its TGI is over 25 µM.

Q: And the TGI (SK-MEL-5 melanoma)?
A: Its TGI is 4.38 µM.

Q: And the TGI (MOLT-4 leukemia)?
A: The TGI was over 25 µM.

Q: And the TGI (UACC-257 melanoma)?
A: Its TGI is 19.1 µM.

Q: What about the TGI (NCI/ADR-RES ovarian) of the same compound?
A: Its TGI is over 25 µM.

Q: What about the TGI (HOP-62 NSCLC) of the same compound?
A: Its TGI is over 25 µM.

Q: What about the TGI (HCC-2998 colon) of the same compound?
A: Its TGI is 2.93 µM.

Q: What about the TGI (SW-620 colon) of the same compound?
A: Its TGI is over 25 µM.

Q: And the TGI (MDA-MB-231 breast)?
A: Its TGI is 3.71 µM.

Q: And the TGI (KM12 colon)?
A: The TGI was 13.1 µM.

Q: What about the TGI (HCT-15 colon) of the same compound?
A: Its TGI is over 25 µM.

Q: And the TGI (IGROV1 ovarian)?
A: The TGI was 8.17 µM.

Q: What about the TGI (T-47D breast) of the same compound?
A: The TGI was 12.1 µM.

Q: And the TGI (NCI-H460 lung)?
A: The TGI was 6.24 µM.

Q: And the TGI (UO-31 renal)?
A: Its TGI is 22.5 µM.
